From patent US4005214A (Hoffmann-La Roche Inc., priority 1974, dated 1977)
Structures can show the parent of a compound that is named as a salt.

Assays:
[1] = pH of about 9; cited from earlier work
mice = test: acute toxicity in mice (LD 50); format: in vivo; details: for LD 50 (Lethal Dose) s.c.: subcutaneous administration
Escherichia coli = test: activity (CD 50) against Escherichia coli upon subcutaneous administration to mice; format: in vivo
[2] = acute toxicity in mice (LD 50); format: in vivo; details: mouse, in vivo, iv, intravenous administration, read-out: LD 50 (Lethal Dose) i.v.

SMILES | stability at high pH [1] | LD 50 (Lethal Dose) i.v. (mice; intravenous administration) [mg/kg] | LD 50 (Lethal Dose) s.c. (mice) [mg/kg] | CD 50 (Curative Dose) (Escherichia coli) [mg/kg] | LD50 [2] [mg/kg] | ED50 (Escherichia coli; sc, read-out: CD 50 (Curative Dose)) [mg/kg]
CC1(C)S[C@@H]2[C@H](NC(=O)[C@H](N)c3ccc(O)cc3)C(=O)N2[C@H]1C(=O)O [Amoxicillin, D-(-)-alpha-amino-parahydroxybenzyl penicillin] | very unstable | – | – | – | – | –
CC1(C)S[C@@H]2[C@H](NC(=O)[C@H](N)c3ccc(O)cc3)C(=O)N2[C@H]1C(=O)O [Y, N-methyl-D-glucamine salt of amoxicillin] | – | 500 to 1000 | > 5000 | 5.0 | – | –
CC1(C)S[C@@H]2[C@H](NC(=O)[C@H](N)c3ccc(O)cc3)C(=O)N2[C@H]1C(=O)O [X, choline salt of amoxicillin] | – | – | 2000 to 4000 | – | 250 to 500 | 5.9
